The numbers were not newly measured in patent US6026817A, “Method of treating the syndrome of coronary heart disease risk factors in humans” (priority 1998, dated 2000), which cites them from elsewhere.

Series [1] has as its system experimental brain trauma. The settings on record: in vivo; cited from earlier work.
The test system of the next series is adult male rats. The settings on record: intracisternal administration, conscious rats, dose related; cited from earlier work.

As to `Oc1ccc2c3c1O[C@H]1c4[nH]c5c(c4C[C@@]4(O)[C@@H](C2)N(CC2CC2)CC[C@]314)C[C@@]1(O)[C@H]2Cc3ccc(O)c4c3[C@@]1(CCN2CC1CC1)[C@H]5O4` [nor-binaltorphimine], in series [1], the “outcome after experimental brain trauma” value is “improves the outcome”.

Turning to “β-endorphin: synthetic human β-endorphin (YGGFMTSEKSQTPLVTLFKNAIIKNAYKKGE; Beta-endorphin; UniProt P01189 237-267, looked up)”, the “plasma concentrations of catecholamines” value in the series with adult male rats is “increased plasma concentrations of epinephrine, norepinephine, and dopamine”.
